Values of other authors as cited in patent US20170072004A1, “COMPOSITIONS AND METHODS FOR IMPROVING THE BIOAVAILABILITY OF CURCUMINOIDS” (priority 2015, published 2017).

Settings: rats, oral curcumin 2 g/kg, co-administration of piperine

Compound: COc1cc(/C=C/C(=O)CC(=O)/C=C/c2ccc(O)c(OC)c2)ccc1O [curcumin, diferuloylmethane]
- Increase in systemic bioavailability following oral dosing: ≤ 154%
